Experimental data taken from ChEMBL document CHEMBL4145588, “2,7-Diazaspiro[4,4]nonanes for the Treatment or Prevention of Cancers and Diabetes” (ACS Med Chem Lett, 2018).

Target: T1, Menin (Homo sapiens, UniProt O00255)
T1 sequence (O00255 whole entry): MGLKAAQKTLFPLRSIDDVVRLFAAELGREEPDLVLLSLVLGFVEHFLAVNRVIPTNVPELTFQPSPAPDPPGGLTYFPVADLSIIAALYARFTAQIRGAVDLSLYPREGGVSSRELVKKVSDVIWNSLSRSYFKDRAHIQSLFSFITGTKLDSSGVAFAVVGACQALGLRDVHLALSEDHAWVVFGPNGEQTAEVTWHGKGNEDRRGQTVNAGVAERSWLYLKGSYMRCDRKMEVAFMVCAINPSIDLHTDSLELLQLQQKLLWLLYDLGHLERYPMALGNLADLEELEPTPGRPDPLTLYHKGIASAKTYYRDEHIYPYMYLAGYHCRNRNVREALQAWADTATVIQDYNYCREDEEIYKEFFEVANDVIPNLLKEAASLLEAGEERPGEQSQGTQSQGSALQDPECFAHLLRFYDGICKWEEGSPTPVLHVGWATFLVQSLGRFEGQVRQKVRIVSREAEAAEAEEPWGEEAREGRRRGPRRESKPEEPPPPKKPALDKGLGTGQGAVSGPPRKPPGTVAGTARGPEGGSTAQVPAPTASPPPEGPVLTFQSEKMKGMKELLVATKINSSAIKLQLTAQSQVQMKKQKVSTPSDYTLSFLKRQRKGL
Assay: Inhibition of biotinylated MLL-1 derived biotinylated Btn-PEG2- PEG2-S-Nva-RWRFPARPGTT-Amide binding to recombinant full length N-terminal His-tagged menin (unknown origin) expressed in Escherichia coli incubated for 10 mins by TR-FRET assay

Compound | IC50
O=S(=O)(Cc1ccc(CN2CCC3(CCN(c4ncnc5sc(CC(F)(F)F)cc45)C3)C2)cc1)NCCO (centres undefined) | 10 nM
CN(CCO)c1ccc(CN2CCC3(CCN(c4ncnc5sc(CC(F)(F)F)cc45)C3)C2)cc1 (centres undefined) | 10 nM
NS(=O)(=O)Cc1ccc(CN2CCC3(CCN(c4ncnc5sc(CC(F)(F)F)cc45)C3)C2)cc1 (centres undefined) | 4 nM
C=CC(=O)Nc1ccc(CN2CCC3(CCN(c4ncnc5sc(CC(F)(F)F)cc45)C3)C2)cc1 (centres undefined) | 10 nM
CC(C)(C#N)c1ccc(CN2CCC3(CCN(c4ncnc5sc(CC(F)(F)F)cc45)C3)C2)cc1 (centres undefined) | 20 nM
NS(=O)(=O)Cc1ccc(CN2CCC3(CCN(c4ncnc5cc(CC(F)(F)F)sc45)C3)C2)cc1 (centres undefined) | 10 nM

Results, then the compound that gave them:

IC50 | Compound
10 nM | CC(c1ccc(CN2CCC3(CCN(c4ncnc5sc(CC(F)(F)F)cc45)C3)C2)cc1)S(N)(=O)=O (centres undefined)
20 nM | N#CCc1ccc(CN2CCC3(CCN(c4ncnc5sc(CC(F)(F)F)cc45)C3)C2)cc1 (centres undefined)
10 nM | FC(F)Cc1cc2c(N3CCC4(CCN(Cc5ccc(N6CCOCC6)cc5)C4)C3)ncnc2s1 (centres undefined)
